Reference: patent US20110218143A1, “COMPOSITIONS AND METHODS FOR TISSUE REPAIR” (UNIVERSITY OF FLORIDA RESEARCH FOUNDATION, priority 2007, published 2011)
“Also recorded” adds a separate entry of the source.

What was measured:
[1] = system: cytokine production in mouse blood; experiment: Cytokine/chemokine levels in blood serum (Millipore 21-Plex, Luminex); format: in vivo, C57BL6/J mice
Procedure: Mice received either a placebo, celastrol (3.0 mg/kg), or 17-AAG (10 mg/kg) by intraperitoneal injection. Blood samples were taken from all groups of mice at 0, 1, 3, 6, 24, 48, and 72 hours after administration of the placebo, celastrol, or 17-AAG. The blood samples were analyzed for cytokine production, including the production of granulocyte-macrophage colony-stimulating factor (GM-CSF), interferon-gamma (IFN-γ), interleukin-10 (IL-10), interleukin-12 subunit beta (IL-12p40), interleukin-12 heterodimer (IL-12p70), interleukin-12 homodimer (IL-12p80), vascular endothelial growth factor (VEGF), tumor necrosis factor-alpha (TNF-α), keratinocyte derived chemokine (KC), RANTES (Regulated upon Activation, Normal T-cell Expressed, and Secreted; CCL5), monocyte chemotactic protein-1 (MCP 1), macrophage inflammatory protein (MIP1β; CCL4), interleukin-4 (IL-4), interleukin-3 (IL-3), interleukin-2 (IL-2), interleukin-1 beta (IL-1β), interleukin-1 alpha (IL-1α), interleukin-9 (IL-9), interleukin-13 (IL-13), interleukin-17 (IL-17), interleukin-6 (IL-6), and interleukin-5 (IL-5). Blood serum was analyzed using a commercially available kit (e.g., Mouse cytokine/chemokine panel: 21-Plex; Millipore). Blood serum (50 μl) was assayed in duplicate using a commercially available cytokine/chemokine detection kit from Millipore following the protocol given with the product information. The final measurement was performed using a commercially available detector (e.g., computer-operated Luminex 100 IS system) and the results were expressed as pg/ml blood serum sample. Levels of cytokines in blood were quantitated as a concentration of the total volume of the sample.

NOD mice = experiment: Blood glucose / diabetes incidence in NOD mouse model; format: in vivo
Procedure: The NOD mouse is recognized as a model for human Type1 diabetes (Anderson and Bluestone, “THE NOD MOUSE: A Model of Immune Dysregulation” Annual Review of Immunology 23: 447-485, 2005, which is incorporated by reference in its entirety). Celastrol was administered to the mice at the rate of 3.0 mg/kg body weight via intra-peritoneal injection once a week in NOD mice starting from 4 weeks of age. When mice attained 11 weeks of age, the compound was administered at the rate of 3.3 mg/kg body weight via oral gavage three times a week up to 30 weeks of age. Blood glucose levels were measured at the time of celastrol administration once a week from 4-10 weeks and three times a week from 11-30 weeks. Mice in control group were treated with placebo.

[2] = celastrol 3.0 mg/kg i.p., over the course of the experiment
[3] = celastrol 3.0 mg/kg i.p., throughout the 72 hour time course
[4] = i.p. celastrol 3.0 mg/kg or 17-AAG 10 mg/kg, 72 hour time course
[5] = i.p. celastrol 3.0 mg/kg or 17-AAG 10 mg/kg, sampled 0-72 h
[6] = i.p. celastrol 3.0 mg/kg or 17-AAG 10 mg/kg, sampled 0-72 h, vs placebo control

SMILES: CC1=C(O)C(=O)C=C2C1=CC=C1[C@@]2(C)CC[C@@]2(C)[C@@H]3C[C@](C)(C(=O)O)CC[C@]3(C)CC[C@]12C [celastrol]
- level of GM-CSF compared to placebo control ([1]; celastrol 3.0 mg/kg i.p., 72 hour time course): elevated again between 24 and 48 hours; also recorded: elevated again 6 to 48 hours
- level of IL-9 compared to placebo control ([1]; celastrol 3.0 mg/kg i.p., after peak): remained slightly elevated up to 72 hours
- level of IL-6 compared to placebo control [1, 2]: not significantly different
- level of RANTES compared to placebo control [1, 2]: not significantly different
- level of IL-2 compared to placebo control [1, 3]: slightly elevated
- level of VEGF compared to placebo control [1, 3]: slightly elevated
- level of IL-1α compared to placebo control ([1]; celastrol 3.0 mg/kg i.p., throughout the experiment): slightly decreased
- level of IL-13 compared to placebo control ([1]; celastrol 3.0 mg/kg i.p., up to 48 hours post treatment, risen again by 72 hours): slightly elevated
- level of IL-17 compared to placebo control ([1]; i.p. celastrol 3.0 mg/kg (throughout 72 hours) or 17-AAG 10 mg/kg (up to 48 hours)): slightly elevated
- level of IFN-γ compared to placebo control [1, 4]: slightly elevated
- level of IL-5 compared to placebo control [1, 4]: not significantly different
- level of IL-12p40 compared to placebo control [1, 4]: slightly elevated
- time by which GM-CSF (elevated pre treatment) declined to placebo control levels [1, 5]: ≤ 6 h
- time by which IL-3 (slightly elevated pre treatment) declined to placebo control levels [1, 5]: ≤ 1 h
- time by which IL-4 (slightly elevated pre treatment) declined to placebo control levels [1, 5]: ≤ 1 h
- time by which MIP1β returned or declined to placebo control levels [1, 5]: ≤ 6 h
- time by which TNF-α (elevated pre treatment) declined to placebo control levels [1, 5]: ≤ 6 h
- time of peak level of IL-9 post treatment [1, 6]: around 3 hours
- time of peak level of KC post treatment [1, 6]: around 6 hours
- mice that became hyperglycemic (more than 250 mg/dL) (NOD mice; celastrol 3.0 mg/kg i.p. once a week from 4 weeks, 3.3 mg/kg oral gavage three times a week from 11 to 30 weeks of age, at 23 weeks of age): twenty
- mice euglycemic or normoglycemic (less than 250 mg/dL) (NOD mice; same regimen, up to 30 weeks of age): Eighty
